In the test the test system is B6C3F1 mice, B16 melanoma ip, median survival T/C. As to the kind of experiment: NCI In Vivo Anticancer Drug Screen. Data for tumor model B16 Melanoma (intraperitoneal) in B6C3F1 mice. Particulars: endpoint: median survival time, schedule: Q01DX009 (ip), higher = longer survival. The essentials:
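Mice bearing transplanted tumor were dosed with compound or vehicle, and survival was recorded. Activity is expressed as the treated-group measurement (T) divided by the vehicle control measurement (C).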

Where [1] appears, read: dose: 6.25 mg/kg/injection, vehicle: saline with Tween-80.
Where [2] appears, read: dose: 12.5 mg/kg/injection, vehicle: saline with Tween-80.
Where [3] appears, read: dose: 25.0 mg/kg/injection, vehicle: saline with Tween-80.
Setting [4] is: dose: 50.0 mg/kg/injection, vehicle: Klucel (hydroxypropylcellulose) (HPC).
[5] abbreviates: dose: 100.0 mg/kg/injection, vehicle: Klucel (hydroxypropylcellulose) (HPC).
The mark [6] stands for this setting: dose: 200.0 mg/kg/injection, vehicle: Klucel (hydroxypropylcellulose) (HPC).
Where [7] appears, read: dose: 25.0 mg/kg/injection, vehicle: saline.
Where [8] appears, read: dose: 50.0 mg/kg/injection, vehicle: saline.
[9] abbreviates: dose: 100.0 mg/kg/injection, vehicle: saline.
Setting [10] is: dose: 50.0 mg/kg/injection, vehicle: saline with Tween-80.
The mark [11] stands for this setting: dose: 100.0 mg/kg/injection, vehicle: saline with Tween-80.
Where [12] appears, read: dose: 200.0 mg/kg/injection, vehicle: saline with Tween-80.
The mark [13] stands for this setting: dose: 12.5 mg/kg/injection, vehicle: saline.
Where [14] appears, read: dose: 200.0 mg/kg/injection, vehicle: saline.
The mark [15] stands for this setting: dose: 400.0 mg/kg/injection, vehicle: saline.
Setting [16] is: dose: 6.25 mg/kg/injection, vehicle: water.
Setting [17] is: dose: 12.5 mg/kg/injection, vehicle: water.

This passage reports T/C results from PubChem BioAssay AID200 (DTP/NCI, 2004).

Values joined by “and” are separate entries in the source; they are usually repeats but may differ in a detail not shown here. Equal values may be shown once. Toxic doses and inconclusive results are not listed. Where a SMILES comes first, the peptide text is derived from it. [ ]: non-standard residue; d: D form. The star is where a group is joined. Cbz = O=C(OCc1ccccc1)*; Nva = CCC[CH](N)C(=O)O

As for `COc1ccc(C(Cn2ccnc2)Sc2ccc(Cl)c(Cl)c2)cc1` (stereo not drawn), the T/C reads like this: (dose: 3.12 mg/kg/injection, vehicle: saline with Tween-80) 94 % of control; under setting [1], 92 % of control and 96 % of control and 107 % of control; under setting [2], 95 % of control and 96 % of control and 103 % of control; under setting [3], 95 % of control and 97 % of control and 100 % of control.

For the compound `O=c1[nH]cc(O)c(=O)[nH]1`, the T/C is, setting by setting: under setting [4], 102 % of control; under setting [5], 96 % of control; under setting [6], 103 % of control.

As to `CC(=O)Nc1ccc(C(O)C2=CC(=O)c3ccccc3C2=O)cc1` (stereo not drawn), the T/C was 102 % of control under setting [7], 88 % of control under setting [8] and 94 % of control under setting [9].

On to `Clc1ccc2nnnn2n1`, for which the T/C is 95 % of control under setting [2]; 105 % of control under setting [3]; 108 % of control and 116 % of control and 123 % of control under setting [10]; 111 % of control under setting [11]; 167 % of control under setting [12].

For `CCCC(=O)O`, the T/C by setting is: under setting [13], 100 % of control; under setting [7], 96 % of control; under setting [8], 93 % of control; under setting [9], 98 % of control; under setting [14], 93 % of control.

`CCN(CC)C(=S)S`: the T/C under setting [8] was 92 % of control; the T/C (dose: 50.0 mg/kg/injection, vehicle: sodium bicarbonate) is 105 % of control; the T/C under setting [9] was 96 % of control; the T/C (dose: 100.0 mg/kg/injection, vehicle: sodium bicarbonate) is 92 % of control; the T/C under setting [14] was 102 % of control; the T/C (dose: 200.0 mg/kg/injection, vehicle: sodium bicarbonate) was 105 % of control. The T/C is, setting by setting: under setting [15], 94 % of control; (dose: 400.0 mg/kg/injection, vehicle: sodium bicarbonate) 105 % of control; (dose: 800.0 mg/kg/injection, vehicle: saline) 95 % of control; (dose: 800.0 mg/kg/injection, vehicle: sodium bicarbonate) 95 % of control.

For `COc1cc2c(c(OC)c1O)-c1ccc(OC)c(=O)cc1[C@@H](NC(=O)C(F)(F)F)CC2`, the T/C by setting is: (dose: 0.62 mg/kg/injection, vehicle: Klucel (hydroxypropylcellulose) (HPC)) 119 % of control; (dose: 0.63 mg/kg/injection, vehicle: Klucel (hydroxypropylcellulose) (HPC)) 122 % of control; (dose: 1.25 mg/kg/injection, vehicle: Klucel (hydroxypropylcellulose) (HPC)) 118 % of control; (dose: 2.5 mg/kg/injection, vehicle: Klucel (hydroxypropylcellulose) (HPC)) 120 % of control; (dose: 4.17 mg/kg/injection, vehicle: Klucel (hydroxypropylcellulose) (HPC)) 156 % of control.

As for `CC1(C)CC2(C)OC2C2(C1)N=NC(=Nc1ccccc1)O2` (stereo not drawn), the T/C was 96 % of control under setting [3], 100 % of control under setting [10] and 89 % of control under setting [11].

For `[F][Sn]([F])([c]1ccccc1)[c]1ccccc1`, the T/C reads like this: (dose: 1.56 mg/kg/injection, vehicle: Klucel (hydroxypropylcellulose) (HPC)) 98 % of control; (dose: 3.12 mg/kg/injection, vehicle: Klucel (hydroxypropylcellulose) (HPC)) 87 % of control; (dose: 6.25 mg/kg/injection, vehicle: Klucel (hydroxypropylcellulose) (HPC)) 104 % of control; (dose: 12.5 mg/kg/injection, vehicle: Klucel (hydroxypropylcellulose) (HPC)) 103 % of control.

`CN1CCN(c2ccc([N+](=O)[O-])c3no[n+]([O-])c23)CC1`: the T/C by setting is: (dose: 2.5 mg/kg/injection, vehicle: saline with Tween-80) 101 % of control; (dose: 5.0 mg/kg/injection, vehicle: saline with Tween-80) 111 % of control; (dose: 20.0 mg/kg/injection, vehicle: saline with Tween-80) 95 % of control.

As to `COc1ccc(OC)c(Cc2cnc3nc(N)nc(N)c3c2C)c1`, the T/C was 106 % of control under setting [16]; 104 % of control under setting [17]; 99 % of control (dose: 25.0 mg/kg/injection, vehicle: water); 93 % of control (dose: 50.0 mg/kg/injection, vehicle: water).

As to `Cn1cnc([N+](=O)[O-])c1SCC(=O)O`, the T/C was 104 % of control under setting [2]; 109 % of control under setting [13]; 89 % of control under setting [3]; 114 % of control under setting [7]; 103 % of control under setting [10]; 122 % of control under setting [8]. Also, the T/C runs as follows: under setting [11], 98 % of control; under setting [9], 108 % of control; under setting [12], 97 % of control; under setting [14], 104 % of control; (dose: 400.0 mg/kg/injection, vehicle: saline with Tween-80) 97 % of control; under setting [15], 99 % of control.

Take `CCCC(NC(=O)OCc1ccccc1)C(=O)NC(CCSC)C(=O)O` (stereo not drawn) (Cbz-[Nva]-Met-OH; configuration not given here): the T/C is, setting by setting: under setting [5], 100 % of control; under setting [6], 104 % of control; (dose: 400.0 mg/kg/injection, vehicle: Klucel (hydroxypropylcellulose) (HPC)) 96 % of control.

As to `C[CH2][Pb]([CH2]C)([CH2]C)[O]C(=O)COc1ccccc1`, the T/C by setting is: (dose: 0.38 mg/kg/injection, vehicle: Klucel (hydroxypropylcellulose) (HPC)) 94 % of control; (dose: 0.75 mg/kg/injection, vehicle: Klucel (hydroxypropylcellulose) (HPC)) 105 % of control; (dose: 1.5 mg/kg/injection, vehicle: Klucel (hydroxypropylcellulose) (HPC)) 101 % of control; (dose: 3.0 mg/kg/injection, vehicle: Klucel (hydroxypropylcellulose) (HPC)) 91 % of control; (dose: 6.0 mg/kg/injection, vehicle: Klucel (hydroxypropylcellulose) (HPC)) 97 % of control.

As for `O=[N+]([O-])c1ccc(N(CCO)CCO)c2c1no[n+]2[O-]`, the T/C reads like this: under setting [1], 102 % of control; under setting [2], 114 % of control; under setting [3], 102 % of control.

On to `O=C1OCC2C(=O)OCC12` (stereo not drawn), for which the T/C by setting is: under setting [2], 99 % of control; under setting [3], 99 % of control; under setting [10], 102 % of control; under setting [11], 101 % of control; under setting [12], 106 % of control.

Turning to `CC(C)(C)NC(C1=CC(C)(C)c2ccccc2C1=O)c1ccccc1` (stereo not drawn), the T/C runs as follows: under setting [4], 99 % of control; under setting [5], 88 % of control; under setting [6], 98 % of control.

Take `Nc1n[n+](-c2ccccc2)no1`: the T/C was 98 % of control (dose: 3.12 mg/kg/injection, vehicle: water); 107 % of control under setting [16]; 118 % of control under setting [17].
